Laboratory results: patent US9758526B2, “Quinoline-substituted compound” (TAIHO PHARMACEUTICAL CO., LTD., priority 2013, dated 2017)
Values belong to the compound of their own block, whether it stands above or below them.

Tests used:
[1] = tested on: HCC827 expressing EGFR (d746-750); experiment: Growth inhibition, HCC827 expressing EGFR (d746-750); format: cell-based; conditions: Homo sapiens, HCC827, 72 h; cultured three days, CellTiter-Glo
Description: (§1) (1) A human […] lung cancer cell line NCI-H1975 expressing EGFR (T790M/L858R), (2) a human non-small cell lung cancer cell line HCC827 expressing EGFR (d746-750), and (3) a human epithelioid cancer cell line A431 expressing EGFR (WT) were each suspended in complete growth medium recommended by ATCC. The cell suspensions were seeded in each well of a 384-well flat microplate or a 96-well flat plate, and cultured in an incubator containing 5% carbon dioxide gas at 37° C. for one day. Each compound of the present invention was dissolved in DMSO, and serial dilutions of the test compound were prepared using DMSO (to a concentration 500 times the final concentration). The DMSO solution of the test compound or DMSO was diluted with complete growth medium, and the resulting solution was added to each well of the cell culture plate so that the final concentration of DMSO was 0.2%. Then, the cells were cultured in an incubator containing 5% carbon dioxide gas at 37° C. for three days. The number of cells was measured before the addition of the DMSO solution of the test compound, as well as after addition and culture by using a CellTiter-Glo Assay® (produced by Promega) according to a protocol recommended by Promega.
(§2) For each cell, the cell growth inhibition rates of the wells to which the test compounds at various concentrations were added were calculated by the following formula. Then, the obtained inhibition rates (%) at the respective concentrations were plotted for each test compound, and the GI50 value (nM), which is a test compound concentration at which the cell growth can be inhibited by 50%, was determined using XLfit curve-fitting software (IDBS). • Cell Growth Inhibition Rate (%)=(C−T)/(C−CO)×100 • T: Luminescence intensity of well cultured for three days after addition of the test compound solution • C: Luminescence intensity of well cultured for three days after addition of DMSO • C0: Luminescence intensity of well before addition of the test compound solution

[2] = tested on: NCI-H1975 expressing EGFR (T790M/L858R); experiment: Growth inhibition, NCI-H1975 expressing EGFR (T790M/L858R); format: cell-based; conditions: Homo sapiens, NCI-H1975, 72 h; cultured three days, CellTiter-Glo
Description: as §1, §2

[3] = molecular target: T1, EGFR (T790M/L858R) (Homo sapiens, UniProt P00533, L858R/T790M); experiment: EGFR (T790M/L858R) kinase inhibitory activity; format: biochemical; conditions: for IC50: ATP 1 μM, 25° C. for 120 minutes
T1 construct: purchased Carna Biosciences, Inc
Description: The inhibitory activities of the compounds of the present invention against EGFR (T790M/L858R) kinase activity were measured.
(§3) Among the materials of the inhibitory activity measurement, the substrate peptide and the kinase protein were obtained as follows. A peptide with biotinylated N-terminus (biotin-EEPLYWSFPAKKK) was synthesized with reference to FL-Peptide 22, a reagent for LabChip® series of PerkinElmer, Inc. For the kinase protein, a purified recombinant human EGFR (T790M/L858R) protein of Carna Biosciences, Inc. was purchased.
(§4) The inhibitory activity measurement was performed as follows. The compounds of the present invention were individually dissolved in dimethyl sulfoxide (DMSO), and serial dilutions of these compounds were prepared using DMSO. Subsequently, a solution containing the substrate peptide (final concentration: 250 nM), magnesium chloride (final concentration: 10 mM), manganese chloride (final concentration: 10 mM), and ATP (final concentration: 1 μM) in a buffer solution for kinase reaction (Carna Biosciences, Inc.) was mixed with the dilutions of the compounds (final concentration of DMSO upon kinase reaction: 2.5%) or DMSO (final concentration: 2.5%). EGFR (T790M/L858R) protein was further added thereto, and the mixtures were incubated at 25° C. for 120 minutes to carry out a kinase reaction. EDTA was added thereto to a final concentration of 24 mM to thereby terminate the reaction. A phosphorylated thyrosine detection solution containing europium (Eu)-labeled anti-phosphorylated tyrosine antibody PT66 (PerkinElmer, Inc.) and SureLight APC-SA (PerkinElmer, Inc.) was added to the reaction mixtures, and the mixtures were allowed to stand at room temperature for 2 hours or more. For the background, a sample to which EDTA was added before addition of EGFR (T790M/L858R) protein was incubated at 25° C. for 120 minutes, using DMSO instead of the DMSO solution of the compound. The detection solution was also added to this sample, and the mixture was allowed to stand for 2 hours or more. Finally, for all of the test samples, the amount of fluorescence at the time of irradiation of excitation light having a wavelength of 337 nm was measured at dual wavelengths of 620 nm and 665 nm by PHERAstar FS (BMG LABTECH), and a ratio of the fluorescence amounts at the two wavelengths was obtained as data.
(§5) Based on the above rates, phosphorylation inhibition rates (%) were calculated for the samples to which various concentrations of the compound solutions were added. Finally, the obtained reaction inhibition rates (%) at the respective concentrations were plotted for each compound, and the IC50 value (nM), which is a compound concentration at which phosphorylation by EGFR (T790M/L858R) is inhibited by 50%, was determined using XLfit curve-fitting software (IDBS).

[4] = molecular target: T2, EGFR (L858R) (Homo sapiens, UniProt P00533, L858R); experiment: EGFR (L858R) kinase inhibitory activity; format: biochemical; conditions: ATP 4 μM
T2 construct: purchased Carna Biosciences, Inc
Description: as §3, §4, §5
The inhibitory activities of the compounds of the present invention against EGFR (L858R) kinase activity were measured.
The materials, the measurement method, and the data analysis method were substantially the same as those shown in the above description regarding “Measurement of EGFR (T790M/L858R) Kinase Inhibitory Activity,” except that a purified recombinant human EGFR (L858R) protein purchased from Carna Biosciences, Inc. was used as the kinase protein, and the measurement was performed with ATP at a final concentration of 4 μM. Finally, the IC50 value (nM) of each compound with respect to EGFR (L858R) was determined by data analysis.

[5] = molecular target: T3, EGFR (d746-750) (Homo sapiens, UniProt P00533, DEL746-750); experiment: EGFR (d746-750) kinase inhibitory activity; format: biochemical; conditions: ATP 5 μM, kinase reaction 90 minutes
T3 construct: purchased Carna Biosciences, Inc
Description: as §3, §4, §5
The inhibitory activities of the compounds of the present invention against EGFR (d746-750) kinase activity were measured.
The materials, the measurement method, and the data analysis method were substantially the same as those shown in the above description regarding “Measurement of EGFR (T790M/L858R) Kinase Inhibitory Activity,” except that a purified recombinant human EGFR (d746-750) protein purchased from Carna Biosciences, Inc. was used as the kinase protein, the measurement was performed with ATP at a final concentration of 5 μM, and the incubation for the kinase reaction was performed for 90 minutes. Finally, the IC50 value (nM) of each compound with respect to EGFR (d746-750) was determined by data analysis.

[6] = tested on: A431 expressing EGFR (WT); experiment: Growth inhibition, A431 expressing EGFR (WT); format: cell-based; conditions: Homo sapiens, A-431, 72 h; cultured three days, CellTiter-Glo
Description: as §1, §2

[7] = molecular target: T4, EGFR (d746-750/T790M) (Homo sapiens, UniProt P00533, DEL746-750/T790M); experiment: EGFR (d746-750/T790M) kinase inhibitory activity; format: biochemical; conditions: ATP 1.5 μM
T4 construct: purchased Carna Biosciences, Inc
Description: as §3, §4, §5
The inhibitory activities of the compounds of the present invention against EGFR (d746-750/T790M) kinase activity were measured.
The materials, the measurement method, and the data analysis method were substantially the same as those shown in the above description regarding “Measurement of EGFR (T790M/L858R) Kinase Inhibitory Activity,” except that a purified recombinant human EGFR (d746-750/T790M) protein purchased from Carna Biosciences, Inc. was used as the kinase protein, and the measurement was performed with an ATP final concentration of 1.5 μM. Finally, the IC50 value (nM) of each compound with respect to EGFR (d746-750/T790M) was determined by data analysis.

[8] = molecular target: T5, EGFR (WT) (Homo sapiens, UniProt P00533); experiment: EGFR (WT) kinase inhibitory activity; format: biochemical; conditions: substrate peptide 500 nM
T5 construct: expressing a cytoplasmic domain of human EGFR (WT) with its N-terminus fused to a FLAG tag; FLAG (N); made in house; host or cells: insect Sf9 cells, baculovirus expression system
Description: as §3, §4, §5
The inhibitory activities of the compounds of the present invention against EGFR (WT) kinase activity were measured.
The materials, the measurement method, and the data analysis method were substantially the same as those shown in the above description regarding “Measurement of EGFR (T790M/L858R) Kinase Inhibitory Activity,” except that a kinase protein prepared by expressing a cytoplasmic domain of human EGFR (WT) with its N-terminus fused to a FLAG tag in insect Sf9 cells using a baculovirus expression system and then purifying it with anti-FLAG antibody agarose (Sigma-Aldrich) was used as the kinase protein, the final concentration of the substrate peptide was 500 nM, and the final concentration of ATP was […]. Finally, the IC50 value (nM) of each compound with respect to EGFR (WT) was determined by data analysis.

T1 sequence (P00533 25-1210 T790M/L858R): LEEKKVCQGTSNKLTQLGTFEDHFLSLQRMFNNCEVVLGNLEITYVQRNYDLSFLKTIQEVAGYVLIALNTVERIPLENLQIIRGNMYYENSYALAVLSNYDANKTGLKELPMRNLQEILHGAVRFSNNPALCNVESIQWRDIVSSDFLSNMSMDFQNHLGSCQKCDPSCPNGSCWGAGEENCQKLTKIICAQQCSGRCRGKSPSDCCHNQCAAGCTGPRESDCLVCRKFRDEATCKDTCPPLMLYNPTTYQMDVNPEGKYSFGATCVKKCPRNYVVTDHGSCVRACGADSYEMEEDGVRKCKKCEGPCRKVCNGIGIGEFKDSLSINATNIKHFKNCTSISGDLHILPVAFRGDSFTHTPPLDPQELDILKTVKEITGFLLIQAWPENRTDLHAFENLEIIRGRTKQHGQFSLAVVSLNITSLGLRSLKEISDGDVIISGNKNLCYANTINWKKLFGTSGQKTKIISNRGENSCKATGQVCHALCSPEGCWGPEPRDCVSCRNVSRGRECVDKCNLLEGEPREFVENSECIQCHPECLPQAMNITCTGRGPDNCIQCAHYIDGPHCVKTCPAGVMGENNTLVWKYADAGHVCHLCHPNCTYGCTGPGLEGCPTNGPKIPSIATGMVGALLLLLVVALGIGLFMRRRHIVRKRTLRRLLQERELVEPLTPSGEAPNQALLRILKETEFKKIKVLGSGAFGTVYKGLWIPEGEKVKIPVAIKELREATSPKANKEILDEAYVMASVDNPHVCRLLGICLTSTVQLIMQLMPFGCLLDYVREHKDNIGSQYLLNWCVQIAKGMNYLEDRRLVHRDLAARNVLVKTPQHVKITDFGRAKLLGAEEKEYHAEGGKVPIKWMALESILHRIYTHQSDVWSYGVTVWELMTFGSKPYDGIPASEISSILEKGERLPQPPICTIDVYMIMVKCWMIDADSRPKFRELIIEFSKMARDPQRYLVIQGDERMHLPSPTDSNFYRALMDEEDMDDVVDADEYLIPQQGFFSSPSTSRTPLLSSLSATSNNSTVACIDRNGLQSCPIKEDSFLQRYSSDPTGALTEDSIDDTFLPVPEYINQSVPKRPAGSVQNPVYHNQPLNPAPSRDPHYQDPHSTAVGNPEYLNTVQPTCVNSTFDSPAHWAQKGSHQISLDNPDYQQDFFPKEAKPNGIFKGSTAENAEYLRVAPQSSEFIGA
T2 sequence (P00533 25-1210 L858R): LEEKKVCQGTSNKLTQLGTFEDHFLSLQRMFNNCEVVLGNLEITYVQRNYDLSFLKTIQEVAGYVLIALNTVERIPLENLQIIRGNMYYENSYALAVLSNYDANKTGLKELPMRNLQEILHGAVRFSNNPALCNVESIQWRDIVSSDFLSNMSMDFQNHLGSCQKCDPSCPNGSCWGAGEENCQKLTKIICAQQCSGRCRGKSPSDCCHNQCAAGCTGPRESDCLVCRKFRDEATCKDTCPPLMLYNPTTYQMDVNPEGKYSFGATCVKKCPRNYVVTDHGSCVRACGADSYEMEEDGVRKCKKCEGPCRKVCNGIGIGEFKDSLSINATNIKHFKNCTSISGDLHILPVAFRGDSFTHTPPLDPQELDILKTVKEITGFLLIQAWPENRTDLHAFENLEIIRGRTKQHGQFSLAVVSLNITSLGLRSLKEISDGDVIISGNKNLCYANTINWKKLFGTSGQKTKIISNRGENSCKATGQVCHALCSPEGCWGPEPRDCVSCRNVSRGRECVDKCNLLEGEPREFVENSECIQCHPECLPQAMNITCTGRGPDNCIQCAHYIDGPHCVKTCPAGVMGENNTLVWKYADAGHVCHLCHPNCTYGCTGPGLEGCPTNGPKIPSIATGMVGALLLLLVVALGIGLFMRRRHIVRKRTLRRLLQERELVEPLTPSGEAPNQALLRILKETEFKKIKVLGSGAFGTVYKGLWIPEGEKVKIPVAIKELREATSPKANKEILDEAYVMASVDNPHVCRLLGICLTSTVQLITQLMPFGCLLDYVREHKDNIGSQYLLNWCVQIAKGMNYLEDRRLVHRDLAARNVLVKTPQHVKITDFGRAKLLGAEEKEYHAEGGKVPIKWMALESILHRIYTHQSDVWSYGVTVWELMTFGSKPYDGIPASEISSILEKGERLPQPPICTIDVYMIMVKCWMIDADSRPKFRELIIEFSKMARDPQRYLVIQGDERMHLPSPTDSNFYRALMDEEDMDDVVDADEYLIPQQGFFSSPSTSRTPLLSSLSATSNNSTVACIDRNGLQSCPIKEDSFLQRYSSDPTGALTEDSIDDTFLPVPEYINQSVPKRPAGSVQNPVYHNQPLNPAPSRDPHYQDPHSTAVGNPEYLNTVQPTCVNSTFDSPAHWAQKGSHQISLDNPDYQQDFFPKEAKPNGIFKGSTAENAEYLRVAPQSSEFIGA
T5 sequence (P00533 669-1210 limits assumed): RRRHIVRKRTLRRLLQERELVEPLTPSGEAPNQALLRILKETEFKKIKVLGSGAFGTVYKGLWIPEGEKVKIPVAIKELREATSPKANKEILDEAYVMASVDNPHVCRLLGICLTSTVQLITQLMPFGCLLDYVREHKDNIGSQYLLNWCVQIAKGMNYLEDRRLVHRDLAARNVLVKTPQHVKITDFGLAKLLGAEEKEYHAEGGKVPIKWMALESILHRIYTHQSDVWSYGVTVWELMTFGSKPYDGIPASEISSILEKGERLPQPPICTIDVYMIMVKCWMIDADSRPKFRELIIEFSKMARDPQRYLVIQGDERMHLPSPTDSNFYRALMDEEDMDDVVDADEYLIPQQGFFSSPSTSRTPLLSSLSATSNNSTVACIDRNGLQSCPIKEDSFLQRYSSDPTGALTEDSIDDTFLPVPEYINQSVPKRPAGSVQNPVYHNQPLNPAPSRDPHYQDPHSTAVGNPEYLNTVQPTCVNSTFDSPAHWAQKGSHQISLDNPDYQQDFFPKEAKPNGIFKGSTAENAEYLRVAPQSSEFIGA
T4 sequence (P00533 with tags, fused parts or gaps DEL746-750/T790M limits assumed): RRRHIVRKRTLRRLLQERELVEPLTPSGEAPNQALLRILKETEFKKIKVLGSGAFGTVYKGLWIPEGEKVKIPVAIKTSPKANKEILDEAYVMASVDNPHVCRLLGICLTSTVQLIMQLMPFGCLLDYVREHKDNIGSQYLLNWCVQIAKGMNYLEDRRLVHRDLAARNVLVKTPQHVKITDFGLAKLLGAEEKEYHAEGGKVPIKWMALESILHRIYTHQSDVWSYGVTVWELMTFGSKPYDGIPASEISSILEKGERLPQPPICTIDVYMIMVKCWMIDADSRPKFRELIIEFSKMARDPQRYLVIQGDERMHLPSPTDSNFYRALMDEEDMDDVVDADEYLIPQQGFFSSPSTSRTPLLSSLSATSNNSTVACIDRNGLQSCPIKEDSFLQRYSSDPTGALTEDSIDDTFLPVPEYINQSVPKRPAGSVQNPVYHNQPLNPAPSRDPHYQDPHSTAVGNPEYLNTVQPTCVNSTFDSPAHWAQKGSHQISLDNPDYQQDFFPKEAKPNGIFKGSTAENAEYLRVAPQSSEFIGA
T3 sequence (P00533 with tags, fused parts or gaps DEL746-750 limits assumed): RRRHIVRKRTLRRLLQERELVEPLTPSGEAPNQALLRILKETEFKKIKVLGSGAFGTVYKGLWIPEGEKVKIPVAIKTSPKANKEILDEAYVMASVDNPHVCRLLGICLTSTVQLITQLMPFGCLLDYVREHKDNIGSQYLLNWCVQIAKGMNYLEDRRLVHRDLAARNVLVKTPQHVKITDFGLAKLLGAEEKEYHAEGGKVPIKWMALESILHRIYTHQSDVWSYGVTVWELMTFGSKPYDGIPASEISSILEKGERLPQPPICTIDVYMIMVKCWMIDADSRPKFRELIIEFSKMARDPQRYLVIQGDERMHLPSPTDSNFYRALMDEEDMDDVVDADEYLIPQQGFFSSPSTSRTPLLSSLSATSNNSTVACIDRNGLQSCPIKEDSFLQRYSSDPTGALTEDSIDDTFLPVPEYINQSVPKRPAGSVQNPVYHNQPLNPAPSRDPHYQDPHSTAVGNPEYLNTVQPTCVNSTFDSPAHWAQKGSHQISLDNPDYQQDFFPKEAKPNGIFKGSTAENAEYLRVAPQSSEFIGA

Compound: C=C1c2c(-c3cnc4ccccc4c3)c3c(N)ncnc3n2C[C@H]1NC(=O)C=CC (mixture of isomers) [Example 3, (S)—N-(4-amino-6-methylene-5-(quinolin-3-yl)-7,8-dihydro-6H -pyrimido[5,4-b]pyrrolizin-7-yl)but-2-enamide]
- GI50 [1]: 16 nM
- GI50 [2]: 560 nM
- IC50 [3]: 6.1 nM
- IC50 [4]: 15 nM
- IC50 [5]: 7.6 nM
- GI50 [6]: > 10000 nM
- IC50 [7]: 1.8 nM
- IC50 [8]: 110 nM

Compound: Nc1ncnc2c1c(-c1cccc(NC(=O)c3ccccc3)c1)c1n2CCCC1 [Comparative Example 1, N-(3-(4-amino-6,7,8,9-tetrahydropyrimido[5,4-b]indolizin-5-yl)phenyl)benzamide, reference compound]
- inhibitory activity against EGFR kinases (in words) ([3]; summary for EGFR (L858R), (d746-750), (T790M/L858R), (d746-750/T790M), for the comparative compound all EGFR kinases tested): almost no inhibitory activity

Compound: C=C(C)C(=O)N[C@@H]1Cn2c(c(-c3cnc4ccccc4c3)c3c(N)ncnc32)C1=C [Example 2, (S)—N-(4-amino-6-methylene-5-(quinolin-3-yl)-7,8-dihydro-6H -pyrimido[5,4-b]pyrrolizin-7-yl)methacrylamide]
- GI50 [1]: 780 nM
- GI50 [2]: 4200 nM
- IC50 [3]: 77 nM
- IC50 [4]: 230 nM
- IC50 [5]: 78 nM
- GI50 [6]: > 10000 nM
- IC50 [7]: 30 nM
- IC50 [8]: 1400 nM

Compound: C=CC(=O)N[C@H]1Cn2c(c(-c3cnc4ccccc4c3)c3c(N)ncnc32)C1=C [Example 25, (R)—N-(4-amino-6-methylene-5-(quinolin-3-yl)-7,8-dihydro-6H-pyrimido[5,4-b]pyrrolizin-7-yl)acrylamide]
- GI50 [1]: 260 nM
- GI50 [2]: 2500 nM
- IC50 [3]: 36 nM
- IC50 [4]: 100 nM
- IC50 [5]: 59 nM
- GI50 [6]: > 10000 nM
- IC50 [7]: 11 nM

Compound: C=CC(=O)N(C)[C@@H]1Cn2c(c(-c3cnc4ccccc4c3)c3c(N)ncnc32)C1=C [Example 26, (S)—N-(4-amino-6-methylene-5-(quinolin-3-yl)-7,8-dihydro-6H-pyrimido[5,4-b]pyrrolizin-7-yl)-N-methylacrylamide]
- GI50 [1]: 18.4 nM
- GI50 [2]: 150 nM
- IC50 [3]: 1 nM
- IC50 [4]: 1.7 nM
- IC50 [5]: 1.1 nM
- GI50 [6]: 4700 nM
- IC50 [7]: 0.31 nM

Compound: C=CC(=O)N[C@H]1CC(C)c2c(-c3cnc4ccccc4c3)c3c(N)ncnc3n2C1 (stereo partly drawn) [Example 29]
- GI50 [1]: 89 nM
- GI50 [2]: 1600 nM
- IC50 [3]: 14 nM
- IC50 [4]: 19 nM
- IC50 [5]: 21 nM
- GI50 [6]: > 10000 nM
- IC50 [7]: 8.4 nM

Now from value to compound:

- GI50 [1]: 1.9 nM
- GI50 [2]: 9 nM
- IC50 [3]: < 0.5 nM
- IC50 [4]: < 0.5 nM
- IC50 [5]: < 0.15 nM
- GI50 [6]: 370 nM
- IC50 [7]: < 0.15 nM
- IC50 [8]: 0.7 nM
Compound: C=CC(=O)N[C@@H]1Cn2c(c(-c3cnc4ccccc4c3)c3c(N)ncnc32)C1=C [Example 1, (S)—N-(4-amino-6-methylene-5-(quinolin-3-yl)-7,8-dihydro-6H-pyrimido[5,4-b]pyrrolizin-7-yl)acrylamide]

- GI50 [1]: 15 nM
- GI50 [2]: 110 nM
- IC50 [3]: 0.34 nM
- IC50 [4]: 0.35 nM
- IC50 [5]: 0.38 nM
- GI50 [6]: 1000 nM
- IC50 [7]: 0.25 nM
Compound: C=CC(=O)N[C@H]1C=Cc2c(-c3cnc4ccccc4c3)c3c(N)ncnc3n2C1 [Example 27, (S)—N-(4-amino-5-(quinolin-3-yl)-8,9-dihydropyrimido[5,4-b]indolizin-8-yl)acrylamide]

- GI50 [1]: 14 nM
- GI50 [2]: 48 nM
- IC50 [3]: 0.3 nM
- IC50 [4]: 0.49 nM
- IC50 [5]: 0.27 nM
- GI50 [6]: 1200 nM
- IC50 [7]: < 0.5 nM
Compound: C=CC(=O)N[C@H]1C=Cc2c(-c3cnc4ccccc4c3)c3c(N)ncnc3n2CC1 [Example 28, (R)—N-(4-amino-5-(quinolin-3-yl)-9,10-dihydro-8H-pyrimido[5′,4′:4,5]pyrrolo[1,2-a]azepin-8-yl)acrylamide]
